Reference: patent US10259827B2, “BMP potentiators” (NOVARTIS AG, priority 2016, dated 2019)

Columns and labels:
[1] = tested on: 293T-NFAT-luciferase cells; test: Calcineurin inhibition, 293T-NFAT-luciferase reporter assay; format: cell-based; details: 293T-NFAT-luciferase cells co-treated with 100 ng/ml PMA and 1 μM Ionomycin, 24 hours after treatment; read-out: NFAT-luc IC50
Description: NFAT-luciferase reporter line was established by transfecting NFAT-luciferase/pTranslucent (Panomics #LR0050) and Puromycin-resistance plasmid together into 293T cells.
293T-NFAT-luciferase cells were plated to 384-well plate at 10000 cells in 32 μl DMEM plus 10% FBS at day 0. Cells were treated with different doses of compounds at day 1. Half an hour after compound treatment, 293T-NFAT-luciferase cells were co-treated with 100 ng/ml PMA (PHORBOL 12-MYRISTATE 13-ACETAT, Sigma, catalog #P8139-1MG) and 1 μM Ionomycin (Sigma, catalog #10634-1MG). Bright-Glo™ Luciferase Assay (Promega, catalog # E2650) was performed with EnVision plate reader (PerkinElmer) 24 hours after treatment at day 2.

[2] = tested on: C2C12-IDBRE-luciferase cells; test: BMP activity, C2C12-IDBRE-luciferase reporter assay; format: cell-based; details: 24 hours after treatment, 100% activity = luminescence 200% of DMSO control, read-out: Qualified absolute AC50
Description: C2C12-IDBRE-luciferase reporter line was established by infecting C2C12 cells with lentiviruses with IDBRE-luciferase pLenti6 plasmid with Blasticidin resistance.
C2C12-IDBRE-luciferase cells were plated to 384-well plate at 5000 cells in 36 μl DMEM plus 10% FBS at day 0. Cells were treated with different doses of compounds at day 1. Bright-Glo™ Luciferase Assay (Promega, catalog # E2650) was performed with EnVision plate reader (PerkinElmer) 24 hours after treatment at day 2. 0% activity is equal to DMSO control. 100% activity means Luminescence reading for a compound is 200% of luminescence reading of DMSO control. The formula to calculate the activity is: 100*(Luminescence_compound−Luminescence_DMSO)/Luminescence_DMSO

SMILES	IC50 [1] [nM]	AC50 [2] [nM]
C=CC[C@@H]1/C=C(\C)C[C@H](C)C[C@H](OC)[C@H]2O[C@@](O)(C(=O)C(=O)N3CCCC[C@H]3C(=O)O[C@H](/C(C)=C/[C@@H]3CC[C@@H](O)[C@H](OC)C3)[C@H](C)[C@@H](O)CC1=O)[C@H](C)C[C@@H]2OC [FK-506, reference compound]	0.05	24
CO[C@H]1C[C@@H](C)C/C(C)=C/[C@@H](C/C=C/C2(O)COC2)C(=O)C[C@H](O)[C@@H](C)[C@@H](/C(C)=C/[C@@H]2CC[C@@H](O)[C@H](OC)C2)OC(=O)[C@@H]2CCCCN2C(=O)C(=O)[C@]2(O)O[C@H]1[C@@H](OC)C[C@H]2C [Compound A]	> 50000	91
CC[C@H]1C(=O)C[C@H](O)[C@@H](C)[C@@H](/C(C)=C/[C@@H]2CC[C@@H](O)[C@H](OC)C2)OC(=O)[C@@H]2CCCCN2C(=O)C(=O)[C@]2(O)O[C@H]([C@@H](OC)C[C@@H](C)C[C@@]3(C)O[C@H]13)[C@@H](OC)C[C@H]2C [Compound B]	> 50000	24
CC[C@H]1C(=O)C[C@H](O)[C@@H](C)[C@@H](/C(C)=C/[C@@H]2CC[C@@H](O)[C@H](OC)C2)OC(=O)[C@@H]2CCCCN2C(=O)C(=O)[C@]2(O)O[C@H]([C@@H](OC)C[C@@H](C)C[C@]3(C)O[C@@H]13)[C@@H](OC)C[C@H]2C [Compound C]	33	201
